# ChEMBL document CHEMBL2384988, “Discovery of 2-{3-[2-(1-isopropyl-3-methyl-1H-1,2-4-triazol-5-yl)-5,6-dihydrobenzo[f]imidazo[1,2-d][1,4]oxazepin-9-yl]-1H-pyrazol-1-yl}-2-methylpropanamide (GDC-0032): a β-sparing phosphoinositide 3-kinase inhibitor with high unbound exposure and robust in vivo antitumor activity” (J Med Chem, 2013)
# Key:
# [1] = target: Phosphatidylinositol 4-phosphate 3-kinase C2 domain-containing subunit alpha (Homo sapiens, UniProt O00443); experiment: Inhibition of PI3KC2alpha (unknown origin)
# [2] = tested on: Mus musculus; experiment: In vivo inhibition of PI3Kalpha in human MCF7-neo/Her2 cells xenografted in nude mouse assessed as reduction in AKT phosphorylation at S473 at 2.8 mg/kg, po measured after 1 hr; type: functional; parameters: scale not given: the % may be the effect or the level left
# [3] = tested on: Mus musculus; experiment: Toxicity in nude mouse xenografted with human MCF7-neo/Her2 cells assessed as body weight loss relative to vehicle-treated control; type: organism-based
# [4] = cells; settings: Homo sapiens
# Description: Cytotoxicity against human MCF7-neo/Her2 cells after 3 to 4 days by CellTitre-Glo assay
# [5] = tested on: Plasma; experiment: (§1) Plasma protein binding in mouse by equilibrium dialysis; type: ADME, cell-free
# [6] = tested on: PC-3; experiment: Cytotoxicity against human PC3 cells; type: functional, cell-based
# [7] = Intrinsic clearance in mouse liver microsomes after 1 hr by LC-MS/MS analysis; type: ADME, Microsome; settings: read-out: CLH
# [8] = target: DNA-dependent protein kinase catalytic subunit (Homo sapiens, UniProt P78527); experiment: Inhibition of DNA-dependent protein kinase (unknown origin)
# [9] = target: T1, Phosphatidylinositol 4,5-bisphosphate 3-kinase catalytic subunit alpha isoform (Homo sapiens, UniProt P42336); settings: 1 uM
# Description: Inhibition of PI3Kalpha (unknown origin) at 1 uM
# [10] = Plasma protein binding in human; type: ADME, cell-free; settings: read-out: PPB (converted)
# [11] = animal or person; settings: Homo sapiens, po, 480 h, read-out: TGI
# Description: Antitumor activity against human MCF7-neo/Her2 cells xenografted in nude mouse at 22.5 mg/kg, po qd for 20 days relative to vehicle-treated control
# [12] = (§2) AUCtotal in nude mouse at 1 mg/kg, iv and 25 mg/kg, po; type: ADME, organism-based, Plasma; settings: nude, plasma
# [13] = target: Phosphatidylinositol 4-phosphate 3-kinase C2 domain-containing subunit beta (Homo sapiens, UniProt O00750); experiment: Inhibition of PI3KC2beta (unknown origin)
# [14] = target: Phosphatidylinositol 3-kinase catalytic subunit type 3 (Homo sapiens, UniProt Q8NEB9); experiment: Inhibition of human VPS34
# [15] = tested on: Mus musculus; experiment: Unbound AUC in nude mouse at 1 mg/kg, iv and 25 mg/kg, po; type: ADME, organism-based; settings: in vivo
# [16] = tested on: Mus musculus; experiment: Unbound clearance in nude mouse at 1 mg/kg, iv and 25 mg/kg, po; type: ADME, organism-based; settings: in vivo
# [17] = animal or person; settings: Homo sapiens, po, 480 h, read-out: TGI; remark: listed apart in the source
# Description: Antitumor activity against human MCF7-neo/Her2 cells xenografted in nude mouse at 11.25 mg/kg, po qd for 20 days relative to vehicle-treated control
# [18] = Oral bioavailability in mouse; type: ADME, organism-based; settings: in vivo
# [19] = Plasma protein binding in rat; type: ADME, cell-free; settings: read-out: PPB (converted)
# [20] = Plasma clearance in nude mouse at 1 mg/kg, iv and 25 mg/kg, po; type: ADME, organism-based
# [21] = target: T2, Phosphatidylinositol 4,5-bisphosphate 3-kinase catalytic subunit delta isoform (Homo sapiens) (UniProt O00329); settings: 1 uM
# T2 sequence (whole entry): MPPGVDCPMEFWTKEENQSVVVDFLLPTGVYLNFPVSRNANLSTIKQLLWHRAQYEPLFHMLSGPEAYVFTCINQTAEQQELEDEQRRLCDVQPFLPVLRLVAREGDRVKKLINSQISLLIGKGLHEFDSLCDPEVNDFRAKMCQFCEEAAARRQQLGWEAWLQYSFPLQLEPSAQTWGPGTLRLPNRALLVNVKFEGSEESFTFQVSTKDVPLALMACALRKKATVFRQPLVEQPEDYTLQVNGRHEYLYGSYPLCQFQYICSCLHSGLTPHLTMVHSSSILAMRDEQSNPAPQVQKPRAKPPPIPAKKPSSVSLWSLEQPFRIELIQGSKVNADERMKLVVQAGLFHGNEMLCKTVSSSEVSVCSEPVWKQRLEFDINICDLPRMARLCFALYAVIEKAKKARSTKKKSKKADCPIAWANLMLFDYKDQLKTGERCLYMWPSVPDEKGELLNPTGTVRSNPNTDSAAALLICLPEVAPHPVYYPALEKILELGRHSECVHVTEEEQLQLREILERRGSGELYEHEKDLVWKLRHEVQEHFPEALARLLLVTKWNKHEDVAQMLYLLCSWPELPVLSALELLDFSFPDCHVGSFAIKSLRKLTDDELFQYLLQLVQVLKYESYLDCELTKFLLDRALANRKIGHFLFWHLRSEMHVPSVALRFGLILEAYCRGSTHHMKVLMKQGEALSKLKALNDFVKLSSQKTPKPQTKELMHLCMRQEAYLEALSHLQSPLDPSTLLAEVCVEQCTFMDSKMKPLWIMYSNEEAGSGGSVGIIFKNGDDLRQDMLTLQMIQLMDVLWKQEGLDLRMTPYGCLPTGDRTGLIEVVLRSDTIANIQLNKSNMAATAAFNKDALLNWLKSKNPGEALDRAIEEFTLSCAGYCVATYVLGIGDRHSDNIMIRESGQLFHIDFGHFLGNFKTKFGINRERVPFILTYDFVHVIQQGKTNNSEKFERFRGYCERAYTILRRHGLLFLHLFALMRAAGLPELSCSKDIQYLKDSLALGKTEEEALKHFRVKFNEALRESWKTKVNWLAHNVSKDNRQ
# Description: Inhibition of PI3Kdelta (unknown origin) at 1 uM
# [22] = Kinetic solubility of the compound; type: physicochemical; settings: read-out: Kinetic_solubility
# [23] = Plasma clearance in Sprague-Dawley rat; type: ADME, organism-based
# [24] = target: Serine/threonine-protein kinase mTOR (Homo sapiens, UniProt P42345); experiment: Inhibition of mTOR (unknown origin)
# [25] = Oral bioavailability in Sprague-Dawley rat; type: ADME, organism-based; settings: in vivo
# [26] = target: T1, Phosphatidylinositol 4,5-bisphosphate 3-kinase catalytic subunit alpha isoform
# Description: Inhibition of PI3Kalpha (unknown origin) assessed as 3,4,5-inositoltriphosphate formation after 30 mins by fluorescence polarization assay
# [27] = target: T1, Phosphatidylinositol 4,5-bisphosphate 3-kinase catalytic subunit alpha isoform; remark: listed apart in the source
# Description: Inhibition of PI3Kalpha in human MCF7-neo/Her2 cells assessed as reduction of AKT phosphorylation at S473
# [28] = as §1; type: ADME, cell-free; settings: read-out: PPB (converted)
# [29] = tested on: Mus musculus; experiment: as §2; type: ADME, organism-based, Plasma; settings: in vivo
# [30] = tested on: Mus musculus; experiment: Unbound AUC in nude mouse at 100 mg/kg, po; type: ADME, organism-based; parameters: dose 100 mg/kg, route oral; settings: in vivo
# [31] = AUCtotal in nude mouse at 100 mg/kg, po; type: ADME, organism-based; parameters: time AUCmax, dose 100 mg/kg, route oral; settings: plasma
# T1 sequence (P42336 whole entry, canonical isoform): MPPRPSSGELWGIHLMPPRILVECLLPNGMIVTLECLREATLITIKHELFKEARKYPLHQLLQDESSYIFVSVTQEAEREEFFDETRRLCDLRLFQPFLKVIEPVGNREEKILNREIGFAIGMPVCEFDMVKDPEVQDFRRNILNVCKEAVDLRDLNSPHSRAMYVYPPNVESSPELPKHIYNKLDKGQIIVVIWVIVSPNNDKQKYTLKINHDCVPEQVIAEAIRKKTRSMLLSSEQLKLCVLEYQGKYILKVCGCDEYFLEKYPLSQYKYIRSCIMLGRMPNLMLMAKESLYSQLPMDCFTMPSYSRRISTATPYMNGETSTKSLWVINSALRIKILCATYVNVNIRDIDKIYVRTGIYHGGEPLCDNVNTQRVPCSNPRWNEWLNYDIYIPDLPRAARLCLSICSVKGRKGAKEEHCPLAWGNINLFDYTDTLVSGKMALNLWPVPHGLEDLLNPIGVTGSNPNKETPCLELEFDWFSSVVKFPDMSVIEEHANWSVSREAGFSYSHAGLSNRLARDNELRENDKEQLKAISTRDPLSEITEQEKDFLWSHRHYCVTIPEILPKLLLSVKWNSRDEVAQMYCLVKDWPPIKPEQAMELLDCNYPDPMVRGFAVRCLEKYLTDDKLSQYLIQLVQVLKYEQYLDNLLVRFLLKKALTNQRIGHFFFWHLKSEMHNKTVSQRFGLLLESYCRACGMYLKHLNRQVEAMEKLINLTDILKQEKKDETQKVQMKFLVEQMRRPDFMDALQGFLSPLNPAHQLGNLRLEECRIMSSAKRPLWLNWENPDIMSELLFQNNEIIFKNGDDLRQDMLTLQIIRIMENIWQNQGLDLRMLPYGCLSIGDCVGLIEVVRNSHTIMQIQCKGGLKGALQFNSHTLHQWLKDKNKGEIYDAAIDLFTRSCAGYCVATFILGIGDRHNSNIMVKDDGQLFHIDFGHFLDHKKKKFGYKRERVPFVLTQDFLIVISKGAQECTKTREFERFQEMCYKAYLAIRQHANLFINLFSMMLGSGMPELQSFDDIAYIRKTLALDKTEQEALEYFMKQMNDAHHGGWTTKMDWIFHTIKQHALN
# Sequence of Phosphatidylinositol 3-kinase catalytic subunit type 3 (Q8NEB9 whole entry): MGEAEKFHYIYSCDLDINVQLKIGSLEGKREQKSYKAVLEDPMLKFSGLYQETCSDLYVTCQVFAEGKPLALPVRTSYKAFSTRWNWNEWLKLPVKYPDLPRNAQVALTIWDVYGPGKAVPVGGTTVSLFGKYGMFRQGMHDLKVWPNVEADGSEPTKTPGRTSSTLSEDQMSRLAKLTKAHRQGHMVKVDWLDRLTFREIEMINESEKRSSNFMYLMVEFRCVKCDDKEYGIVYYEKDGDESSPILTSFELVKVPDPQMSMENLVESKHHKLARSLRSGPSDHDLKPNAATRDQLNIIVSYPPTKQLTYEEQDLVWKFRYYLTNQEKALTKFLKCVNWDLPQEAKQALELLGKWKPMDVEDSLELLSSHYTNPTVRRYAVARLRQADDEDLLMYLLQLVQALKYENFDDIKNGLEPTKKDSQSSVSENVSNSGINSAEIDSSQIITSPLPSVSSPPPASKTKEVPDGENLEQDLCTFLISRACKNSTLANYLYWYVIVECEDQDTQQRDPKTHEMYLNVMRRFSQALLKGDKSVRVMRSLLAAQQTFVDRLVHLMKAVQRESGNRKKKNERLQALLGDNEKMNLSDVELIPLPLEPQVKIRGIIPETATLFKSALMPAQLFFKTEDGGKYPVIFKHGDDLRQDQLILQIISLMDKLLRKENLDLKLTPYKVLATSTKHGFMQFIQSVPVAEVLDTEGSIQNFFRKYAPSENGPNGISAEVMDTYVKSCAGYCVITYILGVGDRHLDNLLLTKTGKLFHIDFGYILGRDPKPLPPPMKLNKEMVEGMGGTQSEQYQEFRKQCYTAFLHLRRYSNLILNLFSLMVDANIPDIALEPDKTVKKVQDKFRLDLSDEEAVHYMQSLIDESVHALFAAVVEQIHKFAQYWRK
# Sequence of Phosphatidylinositol 4-phosphate 3-kinase C2 domain-containing subunit alpha (O00443 whole entry, the tested form may be a part): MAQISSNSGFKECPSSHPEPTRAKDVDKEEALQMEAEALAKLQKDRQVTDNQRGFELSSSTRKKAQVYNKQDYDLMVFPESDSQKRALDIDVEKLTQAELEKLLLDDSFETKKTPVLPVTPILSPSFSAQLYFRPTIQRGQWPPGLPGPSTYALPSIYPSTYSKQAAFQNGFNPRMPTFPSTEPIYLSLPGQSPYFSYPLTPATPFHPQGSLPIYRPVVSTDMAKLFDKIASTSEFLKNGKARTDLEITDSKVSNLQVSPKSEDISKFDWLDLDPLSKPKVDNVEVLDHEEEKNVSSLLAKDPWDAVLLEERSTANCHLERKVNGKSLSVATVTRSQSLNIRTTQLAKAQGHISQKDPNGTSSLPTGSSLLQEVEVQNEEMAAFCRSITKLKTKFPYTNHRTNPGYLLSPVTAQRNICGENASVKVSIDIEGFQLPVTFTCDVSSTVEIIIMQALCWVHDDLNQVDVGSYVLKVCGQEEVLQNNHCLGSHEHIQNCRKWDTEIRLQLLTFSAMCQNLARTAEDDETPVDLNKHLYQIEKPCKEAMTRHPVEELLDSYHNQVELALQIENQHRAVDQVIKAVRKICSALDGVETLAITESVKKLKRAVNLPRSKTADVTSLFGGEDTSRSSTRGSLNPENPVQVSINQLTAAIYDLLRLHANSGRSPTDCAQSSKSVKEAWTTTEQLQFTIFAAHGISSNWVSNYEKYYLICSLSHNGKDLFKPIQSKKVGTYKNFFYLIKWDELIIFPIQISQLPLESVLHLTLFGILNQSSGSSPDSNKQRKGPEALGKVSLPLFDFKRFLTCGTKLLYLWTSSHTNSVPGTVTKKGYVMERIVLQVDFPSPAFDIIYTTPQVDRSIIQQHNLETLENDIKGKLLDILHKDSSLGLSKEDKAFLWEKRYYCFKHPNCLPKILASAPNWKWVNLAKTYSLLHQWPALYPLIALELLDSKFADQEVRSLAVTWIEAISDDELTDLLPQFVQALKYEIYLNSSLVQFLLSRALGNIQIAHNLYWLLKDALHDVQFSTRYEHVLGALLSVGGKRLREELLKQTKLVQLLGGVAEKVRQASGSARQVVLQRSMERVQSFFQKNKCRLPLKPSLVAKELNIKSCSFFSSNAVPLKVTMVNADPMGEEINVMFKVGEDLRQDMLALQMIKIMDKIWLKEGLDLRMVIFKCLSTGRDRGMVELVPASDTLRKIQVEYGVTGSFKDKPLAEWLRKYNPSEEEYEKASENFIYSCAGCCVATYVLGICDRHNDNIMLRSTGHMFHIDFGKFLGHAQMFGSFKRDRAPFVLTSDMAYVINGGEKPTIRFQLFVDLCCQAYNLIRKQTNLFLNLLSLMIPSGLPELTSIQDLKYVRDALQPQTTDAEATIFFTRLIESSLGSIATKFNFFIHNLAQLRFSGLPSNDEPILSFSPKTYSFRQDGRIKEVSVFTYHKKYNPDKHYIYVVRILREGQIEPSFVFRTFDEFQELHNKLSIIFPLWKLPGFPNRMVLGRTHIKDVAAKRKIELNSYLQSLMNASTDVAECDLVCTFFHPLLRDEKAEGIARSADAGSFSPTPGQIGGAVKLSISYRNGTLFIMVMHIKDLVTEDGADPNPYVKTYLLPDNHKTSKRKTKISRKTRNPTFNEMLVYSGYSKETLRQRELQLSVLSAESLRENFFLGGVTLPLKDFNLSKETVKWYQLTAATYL
compound,measurement,setting,value
Cc1nc(-c2cn3c(n2)-c2ccc(-c4cnn(C(C)(C)C(N)=O)c4)cc2OCC3)n(C(C)C)n1 [TASELISIB],IC50,[1],> 10000 nM
same,Activity,[2],59%
same,Activity,[3],< 10%
same,IC50,[4],25 nM
same,PPB,[5],89.3%
same,EC50,[6],571 nM
same,CLint scaled,[7],41.1 mL/min/kg
same,IC50,[8],> 4800 nM
same,inhibition,[9],98.6%
same,fraction unbound,[10],0.24
same,inhibition in vivo at 22.5 mg/kg,[11],123%
same,AUC,[12],388 µM·h
same,IC50,[13],292 nM
same,IC50,[14],374 nM
same,fAUC,[15],42 µM·h
same,CL free,[16],25 mL/min/kg
same,inhibition in vivo at 11.25 mg/kg,[17],103%
same,bioavailability,[18],100%
same,fraction unbound,[19],0.02
same,clearance,[20],2.7 mL/min/kg
same,inhibition,[21],97.9%
same,solubility kinetic,[22],33.1 µM
same,clearance,[23],1.8 mL/min/kg
same,Ki,[24],1200 nM
same,bioavailability,[25],99%
Cc1nc(-c2cn3c(n2)-c2ccc(-c4cnn(CCO)c4)cc2OCC3)n(C)n1,IC50,[4],1400 nM
same,CLint scaled,[7],100 mL/min/kg
same,solubility kinetic,[22],2.4 µM
same,Ki,[26],2.8 nM
Cc1n[nH]c(-c2cn3c(n2)-c2ccc(-c4cnn(CCO)c4)cc2OCC3)n1,IC50,[4],> 10000 nM
same,solubility kinetic,[22],95.8 µM
same,Ki,[26],21.1 nM
Cc1nc(-c2cn3c(n2)-c2ccc(-c4cnn(C5CN(CCO)C5)c4)cc2OCC3)n(C(C)C)n1,IC50,[4],120 nM
same,CLint scaled,[7],58 mL/min/kg
same,solubility kinetic,[22],109 µM
same,IC50,[27],1.4 nM
same,Ki,[26],0.11 nM
CC(C)n1ncnc1-c1cn2c(n1)-c1ccc(-c3cnn(CCO)c3)cc1OCC2,IC50,[4],92 nM
same,CLint scaled,[7],42.9 mL/min/kg
same,solubility kinetic,[22],5.1 µM
same,IC50,[27],5.4 nM
same,Ki,[26],0.17 nM
Cc1nc(-c2cn3c(n2)-c2ccc(-c4cnn(CCN5CCOCC5)c4)cc2OCC3)n(C(C)C)n1,IC50,[4],248 nM
same,CLint scaled,[7],89.4 mL/min/kg
same,solubility kinetic,[22],52.3 µM
same,IC50,[27],35 nM
same,Ki,[26],0.3 nM
Cc1nc(-c2cn3c(n2)-c2ccc(-c4cnn(C5CN(C(=O)[C@H](C)O)C5)c4)cc2OCC3)n(C(C)C)n1,IC50,[4],102 nM
same,CLint scaled,[7],23 mL/min/kg
same,solubility kinetic,[22],78.2 µM
same,IC50,[27],0.93 nM
same,Ki,[26],0.34 nM
CC(C)n1ncnc1-c1cn2c(n1)-c1ccc(-c3cnn(CC(C)(C)O)c3)cc1OCC2,IC50,[4],81 nM
same,fraction unbound,[28],0.017
same,CLint scaled,[7],44.3 mL/min/kg
same,AUC,[29],156 µM·h
same,fAUC,[15],2.7 µM·h
same,CL free,[16],282 mL/min/kg
same,solubility kinetic,[22],12.4 µM
same,IC50,[27],9.4 nM
same,Ki,[26],0.14 nM
CS(=O)(=O)N1CCN(Cc2cc3nc(-c4cccc5[nH]ncc45)nc(N4CCOCC4)c3s2)CC1 [PICTILISIB],Activity,[3],< 10%
same,fAUC,[30],3.5 µM·h
same,AUC,[31],80.3 µM·h
Cc1nc(-c2cn3c(n2)-c2ccc(-c4cnn(CCO)c4)cc2OCC3)n(C(C)C)n1,IC50,[4],138 nM
same,fraction unbound,[28],0.018
same,CLint scaled,[7],68.1 mL/min/kg
same,AUC,[29],291 µM·h
same,fAUC,[15],5.2 µM·h
same,CL free,[16],83 mL/min/kg
same,IC50,[27],4.5 nM
CC(C)n1ncnc1-c1cn2c(n1)-c1ccc(-c3cn[nH]c3)cc1OCC2,IC50,[4],218 nM
same,CLint scaled,[7],550 mL/min/kg
same,solubility kinetic,[22],< 1 µM
same,Ki,[26],0.31 nM
OCCn1cc(-c2ccc3c(c2)OCCn2cc(-c4ncnn4CC(F)(F)F)nc2-3)cn1,IC50,[4],66 nM
same,CLint scaled,[7],28 mL/min/kg
same,solubility kinetic,[22],7.6 µM
same,IC50,[27],2.9 nM
same,Ki,[26],< 1 nM
CC(C)n1ncnc1-c1nc2c(s1)CCOc1cc(-c3cnn(CCO)c3)ccc1-2,IC50,[4],195 nM
same,fraction unbound,[28],0.002
same,AUC,[12],112 µM·h
same,fAUC,[30],0.55 µM·h
same,fAUC,[15],0.22 µM·h
same,CL free,[16],4750 mL/min/kg
same,AUC,[31],275 µM·h
Cc1nc(-c2cn3c(n2)-c2ccc(-c4cnn(C)c4)cc2OCC3)n(C(C)C)n1,IC50,[4],157 nM
same,CLint scaled,[7],82 mL/min/kg
same,solubility kinetic,[22],2 µM
same,IC50,[27],0.71 nM
same,Ki,[26],0.29 nM
